# From US6277831A, “1,4-benzothiazepine-1,1-dioxide derivatives substituted by sugar residues, process for their preparation, pharmaceuticals comprising these compounds, and their use” (Aventis Pharma Deutschland GmbH, priority 1999, dated 2001)
# Test system: bile acid transport in the ileum
# Experiment: Ileum perfusion test: inhibition of bile acid (3H-taurocholic acid) transport in the ileum of anesthetized rats
# Type: in vivo, Male Wistar rats
# Conditions: rat ileum perfusion; 3 mM taurocholic acid, pH 7.4, 37° C.; 3H-TCA in bile at 80-90 min vs 30-40 min; diastereomeric mixtures unless indicated otherwise
# Experimental: The biological testing of compounds according to the invention was carried out by means of a perfusion test. This test investigates the action of the compounds on the bile acid transport in the ileum. The diastereomeric mixtures of the compounds were tested unless indicated otherwise.
# The Perfusion Test was Carried Out as Described Below:
# Male Wistar rats (weight range 250-350 g) were anesthetized with urethane (1.5 g/kg i.p.) and the bile duct was cannulated with a polyethylene tube. Eight centimeters proximal to the ileocecal flap, an incision was made into the ileum and a silicone adapter for tubes was sewn in. A second incision with implantation of a corresponding silicone adapter was made in the cecum. Silicone tubes were attached to the adapter in order to perfuse the ileum in an orthograde and open manner (nonrecirculating) with perfusion buffer at a perfusion rate of 1 ml/min.
# The perfusion tubes were filled with perfusion buffer (137 mM NaCl, 0.9 mM CaCl2, 0.51 mM MgCl2, 8.1 mM Na2 HPO4, 2.7 mM KCl, 1.47 mM KH2 PO4) (pH 7.4), 1% (v/v) ethanol, and 1% DMSO. The perfusion buffer contained the test compounds in concentrations as indicated, or the vehicle alone. The buffer was preheated to 37° C. The perfusion buffer contained 3 mM taurocholic acid (TCA), which in turn was labeled with 1000 dpm/μl of ^3 H TCA as a marker.
# Study Design and Evaluation of the Results
# An experimental batch was chosen which allowed the determination of the inhibition of bile acid transport in the individual animal. The bile was collected at 10 min intervals over a period of 90 min (in the case of a following wash-out phase for testing the reversibility over a period of up to 160 min). The perfusion of the vehicle-containing buffer solution over a period of 40 min (pre-test substance) was followed by a perfusion with perfusion buffer which contained the test compound in the concentration to be tested (to 90 min).
# For the calculation of the percentage inhibition by the test compound, the dpms (disintegrations per min of ^3 H-TCA) in the bile from 80-90 min (end of the perfusion with the test substance) were related to the collection period 30-40 min during the preliminary phase, when the excretion of the ^3 H-TCA in the control phase had reached its maximum and plateau. The EC50 (=effective concentration 50) was calculated as the effective concentration between the inhibitory values of different concentrations which inhibited the maximum bile acid excretion by 50%.
row,Structure (SMILES),EC50 [µM]
1,"CCCC[C@]1(CC)CS(=O)(=O)c2cc(OC)c(OC)cc2[C@@H](c2ccccc2)N1 [Comparison Example 8, reference compound]",9.8
2,CCCCC1(CC)CS(=O)(=O)c2ccc(N(C)C)cc2C(c2cccc(NC(=O)CCCCCCCCCCNC(=O)[C@H](O)[C@@H](O)[C@H](O)[C@H](O)CO)c2)N1 (some centres unmarked) [Example 4],0.72
3,CCCCC1(CCCC)CS(=O)(=O)c2ccc(N(C)C)cc2C(c2cccc(NC(=O)CCCCNC[C@H](O)[C@@H](O)[C@H](O)[C@H](O)CO)c2)N1 (some centres unmarked) [Example 7],1.4

# The next compounds have a lower EC50 than those just listed; values first:
row,EC50 [µM],Structure (SMILES)
1,0.09,CCCCC1(CC)CS(=O)(=O)c2ccc(N(C)C)cc2C(c2cccc(NC(=O)[C@H](O)[C@@H](O)[C@H](O)[C@H](O)CO)c2)N1 (some centres unmarked) [Example 1]
2,0.15,CCCCC1(CC)CS(=O)(=O)c2ccc(N(C)C)cc2C(c2cccc(NC(=O)[C@H](O)[C@@H](O)[C@H](O)[C@H](O)CO)c2)N1O (some centres unmarked) [Example 2]
3,0.22,CCCCC1(CC)CS(=O)(=O)c2ccc(N(C)C)cc2C(c2cccc(NC(=O)CCCCNC[C@H](O)[C@@H](O)[C@H](O)[C@H](O)CO)c2)N1 (some centres unmarked) [Example 3]
4,0.4,CCCCC1(CCCC)CS(=O)(=O)c2ccc(N(C)C)cc2C(c2cccc(NC(=O)[C@H](O)[C@@H](O)[C@H](O)[C@H](O)CO)c2)N1 (some centres unmarked) [Example 5]
5,0.09,CCCCC1(CCCC)CS(=O)(=O)c2ccc(N(C)C)cc2C(c2cccc(NC(=O)[C@H](O)[C@@H](O)[C@H](O)[C@H](O)CO)c2)N1O (some centres unmarked) [Example 6]
